Laboratory results: article PMC10247784, “Physiological activation of human and mouse bitter taste receptors by bile acids” (Communications Biology, 2023)
Several values for one entry are separate records, joined by “and”; a condition that tells them apart may be missing. Equal values may be shown once.

Biological target: T1, human TAS2R1 (Homo sapiens, UniProt Q9NYW7)
T1 construct: expressed in transfected cells; host or cells: HEK293T-Gα16gust44
T1 sequence (Q9NYW7 1-299): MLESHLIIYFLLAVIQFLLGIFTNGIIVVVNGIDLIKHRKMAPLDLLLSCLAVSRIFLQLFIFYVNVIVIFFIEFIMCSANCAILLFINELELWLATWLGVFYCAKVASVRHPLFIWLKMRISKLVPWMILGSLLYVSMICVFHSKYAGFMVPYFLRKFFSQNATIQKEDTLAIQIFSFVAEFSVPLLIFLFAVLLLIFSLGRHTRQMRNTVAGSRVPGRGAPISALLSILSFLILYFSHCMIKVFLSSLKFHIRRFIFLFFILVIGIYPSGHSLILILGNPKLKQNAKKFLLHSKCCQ
Test: Calcium imaging assay (FLIPR), HEK293T-Gα16gust44 cells transfected with human TAS2R1
Assay type: cell-based
Summary of the method: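 Calcium responses via FLIPR in receptor-transfected HEK293T-Gα16gust44 cells (Fluo-4-AM, 2.5 mM probenecid), after mock-signal subtraction and normalization to baseline and buffer (ΔF/F). Threshold concentration is the lowest dose differing from mock cells at p < 0.01 (Student's t-test), from three biological replicates in duplicate.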

- Efficacy = maximal amplitude (ΔF/F) (TAS2R1, bile acids, mean): 0.1201
- Efficacy (maximal amplitude ΔF/F), individual data points (TAS2R1, bile acids, single replicates, listed as UDCA): 0.1146 and 0.1323 and 0.1134
- RLU (Time 0 s): 0 RLU
- RLU (Time 2.015 s): -1.909 RLU
- RLU (Time 4.015 s): -10.1979 RLU
- RLU (Time 6.015 s): -25.0303 RLU
- RLU (Time 8.015 s): -6.66 RLU
- RLU (Time 12.015 s): -0.9118 RLU
- RLU (Time 14.015 s): -27.1256 RLU
- RLU (Time 16.015 s): -36.3442 RLU
- RLU (Time 18.015 s): -16.5405 RLU
- RLU (Time 18.796 s): -5.241 RLU
- RLU (Time 20.796 s): -5.4345 RLU
- RLU (Time 22.796 s): -14.9172 RLU
- RLU (Time 24.796 s): 111.581 RLU
- RLU (Time 26.796 s): 220.014 RLU
- RLU (Time 28.796 s): 332.008 RLU
- RLU (Time 30.796 s): 471.987 RLU
- RLU (Time 32.796 s): 554.696 RLU
- RLU (Time 34.796 s): 591.628 RLU
- RLU (Time 36.796 s): 614.691 RLU
- RLU (Time 38.796 s): 661.973 RLU
- RLU (Time 40.796 s): 688.451 RLU
- RLU (Time 42.796 s): 682.803 RLU
- RLU (Time 44.796 s): 694.821 RLU
- RLU (Time 46.796 s): 713.853 RLU
- RLU (Time 48.796 s): 712.245 RLU
- RLU (Time 50.796 s): 701.71 RLU
- RLU (Time 52.796 s): 706.484 RLU
- RLU (Time 54.796 s): 693.141 RLU
- RLU (Time 56.796 s): 703.514 RLU
- RLU (Time 58.796 s): 690.888 RLU
- RLU (Time 60.796 s): 687.968 RLU
- RLU (Time 62.796 s): 660.683 RLU
- RLU (Time 64.796 s): 647.003 RLU
- RLU (Time 66.796 s): 672.518 RLU
- RLU (Time 68.796 s): 641.326 RLU
- RLU (Time 70.796 s): 644.562 RLU
- RLU (Time 72.796 s): 618.535 RLU
- RLU (Time 74.796 s): 611.038 RLU
- RLU (Time 76.796 s): 596.187 RLU
- RLU (Time 78.796 s): 593.169 RLU
- RLU (Time 80.796 s): 594.173 RLU
- RLU (Time 82.796 s): 573.074 RLU
- RLU (Time 84.796 s): 565.693 RLU
- RLU (Time 86.796 s): 545.003 RLU
- RLU (Time 88.796 s): 536.557 RLU
- RLU (Time 90.796 s): 528.103 RLU
- RLU (Time 92.796 s): 490.474 RLU
- RLU (Time 94.796 s): 507.179 RLU
- RLU (Time 96.796 s): 484.826 RLU
- RLU (Time 98.796 s): 487.253 RLU
- RLU (Time 100.796 s): 484.348 RLU
- RLU (Time 102.796 s): 464.491 RLU
- RLU (Time 104.796 s): 467.659 RLU
- RLU (Time 106.796 s): 432.725 RLU
- RLU (Time 108.796 s): 406.747 RLU
- RLU (Time 110.796 s): 379.699 RLU
- RLU (Time 112.796 s): 357.544 RLU
- RLU (Time 114.796 s): 362.533 RLU
- RLU (Time 116.796 s): 332.202 RLU
- RLU (Time 118.796 s): 323.517 RLU
- RLU (Time 120.796 s): 321.799 RLU
- RLU (Time 122.796 s): 311.834 RLU
- RLU (Time 124.796 s): 301.938 RLU
- RLU (Time 126.796 s): 306.062 RLU
- RLU (Time 128.796 s): 271.359 RLU
- RLU (Time 130.796 s): 275.474 RLU
- RLU (Time 132.796 s): 247.428 RLU
- RLU (Time 134.796 s): 253.899 RLU
- RLU (Time 136.796 s): 243.041 RLU
- RLU (Time 137.562 s): 220.326 RLU
- RLU (Time 143.562 s): 203.668 RLU
- RLU (Time 149.562 s): 176.37 RLU
- RLU (Time 155.562 s): 166.486 RLU
- RLU (Time 161.562 s): 168.826 RLU
- RLU (Time 167.562 s): 116.188 RLU
- RLU (Time 173.562 s): 124.68 RLU
- RLU (Time 179.562 s): 97.5703 RLU
- RLU (Time 185.562 s): 83.8515 RLU
- RLU (Time 191.562 s): 81.5894 RLU
- RLU (Time 197.562 s): 63.0668 RLU
- RLU (Time 203.562 s): 46.8203 RLU
- RLU (Time 209.562 s): 23.6957 RLU
- RLU (Time 215.562 s): 20.9611 RLU
- RLU (Time 221.562 s): 21.314 RLU
- RLU (Time 227.562 s): 32.3726 RLU
- RLU (Time 233.562 s): 4.71 RLU
- RLU (Time 239.562 s): 3.353 RLU
- RLU (Time 245.562 s): -15.0975 RLU
- RLU (Time 293.562 s): -21.0295 RLU
- RLU (Time 299.562 s): -10.1171 RLU
- RLU (calcium trace, sheet TAS2R1, Time 305.562 s): -21.932 RLU
- RLU (calcium trace, sheet TAS2R1, Time 311.562 s): -35.6948 RLU
- RLU (calcium trace, sheet TAS2R1, Time 317.562 s): -15.7818 RLU
- RLU (calcium trace, sheet TAS2R1, Time 323.562 s): -21.7457 RLU
- RLU (calcium trace, sheet TAS2R1, Time 329.562 s): -25.1818 RLU
- RLU (calcium trace, sheet TAS2R1, Time 335.562 s): -20.2182 RLU
- RLU (calcium trace, sheet TAS2R1, Time 341.562 s): 10.616 RLU
- RLU (calcium trace, sheet TAS2R1, Time 347.562 s): -20.1556 RLU
- RLU (calcium trace, sheet TAS2R1, Time 353.562 s): -12.0438 RLU
- RLU (calcium trace, sheet TAS2R1, Time 359.562 s): -31.063 RLU
- Δ F/F (conc. 0,01 mM, TAS2R1): 0.05863
- Δ F/F (conc. 0,03 mM, TAS2R1): 0.1201
- Δ F/F (conc. 0,0001 mM, TAS2R1): -0.003399
- Δ F/F (conc. 0,0003 mM, TAS2R1): 0.009061
- Δ F/F (conc. 0,001 mM, TAS2R1): 0.007937
- Δ F/F (conc. 0,003 mM, TAS2R1): 0.01609
- Activation threshold concentration TAS2R1 (lowest concentration with significantly increased fluorescence vs empty vector (p < 0.01)): 3 µM and 3.00 µM
Structure (SMILES): C[C@H](CCC(=O)O)[C@H]1CC[C@H]2[C@@H]3[C@@H](O)C[C@@H]4C[C@H](O)CC[C@]4(C)[C@H]3CC[C@]12C [Ursodeoxycholic Acid, ursodeoxycholic acid]
